The values below come from ChEMBL document CHEMBL2413029, “Rapid modifications of N-substitution in iminosugars: development of new β-glucocerebrosidase inhibitors and pharmacological chaperones for Gaucher disease” (Bioorg Med Chem, 2013).

The target of test [1] is Lysosomal alpha-glucosidase (Homo sapiens) (UniProt P10253). Kind of test: Induction of alpha-glucosidase in human GM00372 cells using 4-methylumbelliferyl alpha-D-glucoside as substrate at <6.25 uM after 4 days by fluorescence spectrophotometry relative to untreated control. It is filed as cell-based.
Test [2] shares this target. In words: Induction of alpha-glucosidase in human GM00372 cells using 4-methylumbelliferyl alpha-D-glucoside as substrate at 1.5 uM after 4 days by fluorescence spectrophotometry relative to untreated control. It is filed as cell-based.
Test [3] relates to T1, Lysosomal acid glucosylceramidase (Homo sapiens), P04062 [N409S].
T1 sequence (whole entry): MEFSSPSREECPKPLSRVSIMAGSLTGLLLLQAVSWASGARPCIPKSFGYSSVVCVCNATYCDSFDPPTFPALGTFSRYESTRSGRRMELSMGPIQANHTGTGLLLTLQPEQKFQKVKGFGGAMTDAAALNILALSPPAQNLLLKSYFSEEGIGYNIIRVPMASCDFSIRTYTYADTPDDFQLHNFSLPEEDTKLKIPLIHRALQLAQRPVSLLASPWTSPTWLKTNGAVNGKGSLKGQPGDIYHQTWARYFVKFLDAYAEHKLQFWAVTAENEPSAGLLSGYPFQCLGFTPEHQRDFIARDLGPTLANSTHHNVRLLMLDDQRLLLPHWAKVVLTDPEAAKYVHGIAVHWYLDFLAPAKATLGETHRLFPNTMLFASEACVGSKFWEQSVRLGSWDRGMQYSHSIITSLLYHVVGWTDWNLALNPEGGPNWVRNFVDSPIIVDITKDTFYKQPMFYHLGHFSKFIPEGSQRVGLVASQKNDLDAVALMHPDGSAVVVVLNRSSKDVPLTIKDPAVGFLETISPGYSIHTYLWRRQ
In words: Induction of beta-glucocerebrosidase N370S mutant in human GM00372 cells using 4-methylumbelliferyl-beta-D-glucopyranoside as substrate at 12.5 uM by fluorescence spectrophotometry relative to untreated control. In kind it is cell-based.

The target in test [4] is T2, Lysosomal acid glucosylceramidase (Homo sapiens, UniProt P04062).
T2 sequence (P04062 whole entry): T1 sequence (whole entry) with S409N
In words: Competitive inhibition of human beta-glucocerebrosidase by Lineweaver-Burk double reciprocal plot method.

The target of test [5] is T3, Lysosomal acid glucosylceramidase (Homo sapiens) (UniProt P04062).
T3 sequence (whole entry): T1 sequence (whole entry) with S409N
In words: Inhibition of human beta-glucocerebrosidase at 20 uM by fluorescence spectrophotometry.

Test [6] concerns the target Lysosomal alpha-glucosidase (Homo sapiens) (UniProt P10253). In words: Induction of alpha-glucosidase in human GM00372 cells using 4-methylumbelliferyl alpha-D-glucoside as substrate at 20 to 100 uM after 4 days by fluorescence spectrophotometry relative to untreated control. It is filed as cell-based.
The subject of test [7] is T1, Lysosomal acid glucosylceramidase (Homo sapiens), P04062 [N409S]. Kind of test: Induction of beta-glucocerebrosidase N370S mutant in human GM00372 cells using 4-methylumbelliferyl-beta-D-glucopyranoside as substrate at 50 uM by fluorescence spectrophotometry relative to untreated control. It is filed as cell-based.
The test system is the same in test [8]. In words: Induction of beta-glucocerebrosidase N370S mutant in human GM00372 cells using 4-methylumbelliferyl-beta-D-glucopyranoside as substrate at 3.1 uM by fluorescence spectrophotometry relative to untreated control. In kind it is cell-based.
For test [9] the test system is unchanged. Kind of test: Induction of beta-glucocerebrosidase N370S mutant in human GM00372 cells using 4-methylumbelliferyl-beta-D-glucopyranoside as substrate at 25 uM by fluorescence spectrophotometry relative to untreated control. In kind it is cell-based.
Test [10] has as its target T2, Lysosomal acid glucosylceramidase. In words: Non-competitive inhibition of human beta-glucocerebrosidase by Lineweaver-Burk double reciprocal plot method.
The target of test [11] is Lysosomal alpha-glucosidase (Homo sapiens) (UniProt P10253). In words: Induction of alpha-glucosidase in human GM00372 cells using 4-methylumbelliferyl alpha-D-glucoside as substrate at 25 uM after 4 days by fluorescence spectrophotometry relative to untreated control. In kind it is cell-based.
Test [12] has as its system T1, Lysosomal acid glucosylceramidase (Homo sapiens), P04062 [N409S]. In words: Induction of beta-glucocerebrosidase N370S mutant in human GM00372 cells using 4-methylumbelliferyl-beta-D-glucopyranoside as substrate at 6.2 uM by fluorescence spectrophotometry relative to untreated control. It is filed as cell-based.
The target in test [13] is Lysosomal alpha-glucosidase (Homo sapiens) (UniProt P10253). Kind of test: Induction of alpha-glucosidase in human GM00372 cells using 4-methylumbelliferyl alpha-D-glucoside as substrate at 6.2 uM after 4 days by fluorescence spectrophotometry relative to untreated control. In kind it is cell-based.
Test [14] has as its system T1, Lysosomal acid glucosylceramidase (Homo sapiens), P04062 [N409S]. In words: Induction of beta-glucocerebrosidase N370S mutant trafficking from endoplasmic reticulum to lysosome in human GM00372 cells at 5 uM by immunocytochemistry. In kind it is cell-based.
For test [15] the test system is unchanged. Kind of test: Induction of beta-glucocerebrosidase N370S mutant in human GM00372 cells using 4-methylumbelliferyl-beta-D-glucopyranoside as substrate at 1.5 uM by fluorescence spectrophotometry relative to untreated control. It is filed as cell-based.
Test [16] has the same test system. In words: Induction of beta-glucocerebrosidase N370S mutant in human GM00372 cells using 4-methylumbelliferyl-beta-D-glucopyranoside as substrate at 625 nM by fluorescence spectrophotometry relative to untreated control. In kind it is cell-based.

Where a chain is given by its changes, count along the chain named. Activity calls are given as the source filed them. No cut-off for these calls is given here.

A word on the Ki: it is the equilibrium dissociation constant of an inhibitor or competing ligand from its target. Low values mean higher affinity, high ones lower affinity. What is called inhibition is the relative decrease from the control value, in per cent. Consider `O=C(CC1c2ccccc2-c2ccccc21)NCCCCN1C[C@H](O)[C@@H](O)[C@H](O)[C@H]1CO`, for which the Activity in test [1] was determined as 60%. The fold change (FC) is 0.3 in test [2] and 1.9 in [3]. For the same molecule, in test [4], the Ki came out at 400 nM. Moreover, the inhibition entry in test [5] is “Active”.
On to `O=C(NCCCCN1C[C@H](O)[C@@H](O)[C@H](O)[C@H]1CO)C1CC1`, for which the inhibition in test [5] was less than 60%.
Same read-out and setting: in the case of `O=C(CCC1CCCC1)NCCCCN1C[C@H](O)[C@@H](O)[C@H](O)[C@H]1CO` it was less than 60%.
The same measure, in the same setting: in the case of `O=C(CC1CCCCC1)NCCCCN1C[C@H](O)[C@@H](O)[C@H](O)[C@H]1CO` it was less than 60%.
In the case of `O=C(CC1c2ccccc2-c2ccccc21)NCCCCN1C[C@@H](O)[C@H](O)[C@H]1CO`, in test [6], the Activity was less than 10%. In addition, in [7], the fold change (FC) turned out to be 1.8.
In the case of `CC[C@@H]1[C@@H](O)[C@H](O)[C@@H](CO)N1CCCCNC(=O)CC(c1ccccc1)(c1ccccc1)c1ccccc1`, the fold change (FC) in [8] came out at 1.4.
The molecule `O=C(Cc1cc(C(F)(F)F)cc(C(F)(F)F)c1)NCCCCN1C[C@H](O)[C@@H](O)[C@H](O)[C@H]1CO` yielded an Activity in [1] of 60%. Also, the fold change (FC) came to 0.4 in test [2] and 1.75 in test [3]. The affinity in [4], expressed as Ki, was 71 nM. Moreover, the inhibition result in [5] is “Active”.
Take `CC[C@@H]1[C@@H](O)[C@H](O)[C@@H](CO)N1CCCCNC(=O)CC1c2ccccc2-c2ccccc21`: in test [3], the fold change (FC) stood at 1.6.
As to `COc1ccc2c(c1)C(CC(=O)NCCCCN1C[C@H](O)[C@@H](O)[C@H](O)[C@H]1CO)CC2` (some centres not stated), in test [9], the fold change (FC) came out at 1.5. The molecule also gave a Ki in test [10] of 1100 nM. Also, the inhibition entry in test [5] is “Active”.
As for `O=C(CC(c1ccccc1)(c1ccccc1)c1ccccc1)NCCCCN1C[C@@H](O)[C@H](O)[C@H]1CO`, the fold change (FC) in [11] turned out to be 1.2; in test [12] it was 2.5.
`CCCCCCCCCN1C[C@H](O)[C@@H](O)[C@H](O)[C@H]1CO` displayed an Activity in test [1] of 60%. The fold change (FC) in test [13] is 0.4.
In the case of `O=C(CC1c2ccccc2-c2ccccc21)NCCCCN1[C@H](CO)[C@@H](O)[C@H](O)[C@H]1CO`, the Activity in [6] was less than 10%. Moreover, the fold change (FC) in test [12] was determined as 1.7.
Consider `O=C(CC(c1ccccc1)(c1ccccc1)c1ccccc1)NCCCCN1[C@H](CO)[C@@H](O)[C@H](O)[C@H]1CO`, for which the result in test [14] was Active. In addition, the Activity in [6] was less than 10%. For the same molecule, the fold change (FC) in test [15] was found to be 2.2. In test [4], this molecule registered a Ki of 4100 nM.
In the case of `O=C(COc1ccc(Cl)c(Cl)c1)NCCCCN1C[C@H](O)[C@@H](O)[C@H](O)[C@H]1CO`, in [4], affinity was put at a Ki of 3200 nM. Moreover, in test [5], the inhibition result was “Active”.
In test [5], `O=C(CC1CCCC1)NCCCCN1C[C@H](O)[C@@H](O)[C@H](O)[C@H]1CO` registered an inhibition of less than 60%.
On the same count and under the same terms, to `O=C(NCCCCN1C[C@H](O)[C@@H](O)[C@H](O)[C@H]1CO)C1CCCC1` belongs less than 60%; to `O=C(NCCCCN1C[C@H](O)[C@@H](O)[C@H](O)[C@H]1CO)C1CCC1`, less than 60%.
In test [4], `O=C(NCCCCN1C[C@H](O)[C@@H](O)[C@H](O)[C@H]1CO)C1CCc2ccccc2C1` (some centres not stated) gave a Ki of 1000 nM. Moreover, in test [5], the inhibition entry is “Active”.
In turn, `O=C(CC(c1ccccc1)(c1ccccc1)c1ccccc1)NCCCCN1C[C@H](O)[C@@H](O)[C@H](O)[C@H]1CO` registered an Activity in [1] of 60%. Moreover, the fold change (FC) worked out at 0.4 in test [2] and 1.8 in [16]. The molecule further displayed a Ki in [4] of 400 nM. The inhibition result in test [5] is “Active”.
